Test results taken from patent US9656992B2, “Pyrimidine compounds for the treatment of hepatitis C” (priority 2013, dated 2017).
Like-named read-outs stand apart in the source and are kept apart here.

Tested on: HCV pseudoparticles, genotype 1a HCV E1 and E2 envelope (H77C isolate)
Test: HCV pseudoparticle infection assay (luciferase reporter, entry into Huh7 cells)
Type: cell-based
Settings: Hepatitis C virus, Huh-7, 48 h
[1] = read-out: EC50 (nM) 1a (H77C), HCV pseudoparticles genotype 1a (H77C), Huh7 cells, luciferase measured 2 days after infection, average of duplicates
[2] = read-out: EC50 (nM) 1a (H77C), HCV pseudoparticles genotype 1a (H77C), Huh7 cells, luciferase measured 2 days after infection, class symbols

Row | Structure (SMILES) | EC50 [1] [nM] | EC50 [2] [nM]
1 | CC(C)(CNC(=O)C(N)=O)CNC(=O)c1ccc(Nc2cc(NCc3ccc(Cl)cc3)nc(OCC(F)(F)F)n2)nc1 [Example 1001] | 1.47 | 0.01 to 10
2 | CC(C)(CNC(=O)C(=O)Nc1ccccc1)CNC(=O)c1ccc(Nc2cc(NCc3ccc(Cl)cc3)nc(OCC(F)(F)F)n2)nc1 [Example 1002] |  | 0.01 to 10
3 | Cc1ccc(NC(=O)C(=O)NCC(C)(C)CNC(=O)c2ccc(Nc3cc(NCc4ccc(Cl)cc4)nc(OCC(F)(F)F)n3)nc2)cc1 [Example 1003] | 0.214 | 0.01 to 10
4 | CC(C)CNC(=O)C(=O)NCC(C)(C)CNC(=O)c1ccc(Nc2cc(NCc3ccc(Cl)cc3)nc(OCC(F)(F)F)n2)nc1 [Example 1004] |  | 0.01 to 10
5 | CC(C)(CNC(=O)C(=O)NC1CCCCC1)CNC(=O)c1ccc(Nc2cc(NCc3ccc(Cl)cc3)nc(OCC(F)(F)F)n2)nc1 [Example 1005] |  | 0.01 to 10
6 | CN(C)C(=O)C(=O)NCC(C)(C)CNC(=O)c1ccc(Nc2cc(NCc3ccc(Cl)cc3)nc(OCC(F)(F)F)n2)nc1 [Example 1006] |  | 10 to 1000
7 | CC(C)(CNC(=O)C(=O)N1CCc2ccccc2C1)CNC(=O)c1ccc(Nc2cc(NCc3ccc(Cl)cc3)nc(OCC(F)(F)F)n2)nc1 [Example 1007] |  | 0.01 to 10
8 | CC(C)(CNC(=O)C(=O)Nc1ccc(F)cc1F)CNC(=O)c1ccc(Nc2cc(NCc3ccc(Cl)cc3)nc(OCC(F)(F)F)n2)nc1 [Example 1008] |  | 0.01 to 10
9 | CNC(=O)C(=O)NCC(C)(C)CNC(=O)c1ccc(Nc2cc(NCc3ccc(Cl)cc3)nc(OCC(F)(F)F)n2)nc1 [Example 1009] |  | 0.01 to 10
10 | CC(C)(CNC(=O)C(=O)N1CCCCC1)CNC(=O)c1ccc(Nc2cc(NCc3ccc(Cl)cc3)nc(OCC(F)(F)F)n2)nc1 [Example 1010] |  | 10 to 1000
11 | Cc1nnc(NC(=O)C(=O)NCC(C)(C)CNC(=O)c2ccc(Nc3cc(NCc4ccc(Cl)cc4)nc(OCC(F)(F)F)n3)nc2)s1 [Example 1011] |  | 10 to 1000
12 | CC(C)(CNC(=O)C(=O)Nc1ccc(F)cc1)CNC(=O)c1ccc(Nc2cc(NCc3ccc(Cl)cc3)nc(OCC(F)(F)F)n2)nc1 [Example 1012] | 0.482 | 0.01 to 10
13 | CC(C)(CNC(=O)C(=O)Nc1nccs1)CNC(=O)c1ccc(Nc2cc(NCc3ccc(Cl)cc3)nc(OCC(F)(F)F)n2)nc1 [Example 1013] |  | 0.01 to 10
14 | CC(C)(CNC(=O)C(=O)Nc1cccc(F)c1)CNC(=O)c1ccc(Nc2cc(NCc3ccc(Cl)cc3)nc(OCC(F)(F)F)n2)nc1 [Example 1014] |  | 0.01 to 10
15 | Cc1cc(NC(=O)C(=O)NCC(C)(C)CNC(=O)c2ccc(Nc3cc(NCc4ccc(Cl)cc4)nc(OCC(F)(F)F)n3)nc2)no1 [Example 1015] | 1.31 | 0.01 to 10
16 | CC(C)(CNC(=O)C(=O)Nc1nncs1)CNC(=O)c1ccc(Nc2cc(NCc3ccc(Cl)cc3)nc(OCC(F)(F)F)n2)nc1 [Example 1016] | 56.8 | 10 to 1000
17 | CC(C)(CNC(=O)C(=O)N1CCOCC1)CNC(=O)c1ccc(Nc2cc(NCc3ccc(Cl)cc3)nc(OCC(F)(F)F)n2)nc1 [Example 1017] | 26.8 | 10 to 1000
18 | CC(C)(CNC(=O)C(=O)NCc1ccc(F)cc1)CNC(=O)c1ccc(Nc2cc(NCc3ccc(Cl)cc3)nc(OCC(F)(F)F)n2)nc1 [Example 1018] |  | 0.01 to 10
19 | CC(C)(CNC(=O)C(=O)Nc1cc(F)cc(F)c1)CNC(=O)c1ccc(Nc2cc(NCc3ccc(Cl)cc3)nc(OCC(F)(F)F)n2)nc1 [Example 1019] |  | 10 to 1000
20 | CC(C)(CNC(=O)C(=O)Nc1ccc(Cl)cc1)CNC(=O)c1ccc(Nc2cc(NCc3ccc(Cl)cc3)nc(OCC(F)(F)F)n2)nc1 [Example 1020] |  | 0.01 to 10
